Experiments:
Assay in all cases: combination Emax (second highest fraction inhibited in the dose matrix, 72 h); higher = more inhibition; extreme values may be limits of the assay
WIL2-NS (Non-Cancerous) = system: WIL2-NS (Non-Cancerous)
Method in brief: (§1)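 After 24 hours at 37°C and 5% CO2 in 1536-well plates, cells in DMEM/F12 or RPMI plus 10% FBS received two-drug dose matrices for 72 hours. Viability came from CellTiter-Glo 2.0 luminescence and was scaled as inhibition, anchored at 0 by vehicle wells and at 1 by blank wells. Combination Emax is taken as the second-highest inhibition in the matrix, and Bliss excess as the observed combination effect less EA + EB − EA·EB, with EA and EB the single-agent effects.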

[1] = system: P12-ICHIKAWA (T-Lymphoblastic Leukemia)
Method in brief: as §1

ES8 (Ewing's Sarcoma) = system: ES8 (Ewing's Sarcoma)
Method in brief: as §1

[2] = system: COLO-678 (Colorectal Carcinoma)
Method in brief: as §1

[3] = system: HL-60 (Acute Myeloid Leukemia)
Method in brief: as §1

[4] = system: TOV-112D (Ovarian Carcinoma)
Method in brief: as §1

[5] = system: CAMA-1 (Breast Carcinoma)
Method in brief: as §1

[6] = system: KYSE-180 (Esophageal Squamous Cell Carcinoma)
Method in brief: as §1

[7] = system: EVSA-T (Breast Carcinoma)
Method in brief: as §1

[8] = system: KM12 (Colorectal Carcinoma)
Method in brief: as §1

[9] = system: SW837 (Colorectal Carcinoma)
Method in brief: as §1

[10] = system: BFTC-905 (Bladder Carcinoma)
Method in brief: as §1

U251 (Low Grade Glioma) = system: U251 (Low Grade Glioma)
Method in brief: as §1

MEL-JUSO (Melanoma) = system: MEL-JUSO (Melanoma)
Method in brief: as §1

[11] = system: TE-6 (Esophageal Squamous Cell Carcinoma)
Method in brief: as §1

LN-18 (Glioblastoma) = system: LN-18 (Glioblastoma)
Method in brief: as §1

[12] = system: BL-41 (Burkitt's Lymphoma)
Method in brief: as §1

[13] = system: SW1417 (Colorectal Carcinoma)
Method in brief: as §1

[14] = system: DiFi (Colorectal Carcinoma)
Method in brief: as §1

[15] = system: MOLT-16 (T-Lymphoblastic Leukemia)
Method in brief: as §1

SMILES	combination Emax (WIL2-NS (Non-Cancerous))	combination Emax [1]	combination Emax (ES8 (Ewing's Sarcoma))	combination Emax [2]	combination Emax [3]	combination Emax [4]	combination Emax [5]	combination Emax [6]	combination Emax [7]	combination Emax [8]	combination Emax [9]	combination Emax [10]	combination Emax (U251 (Low Grade Glioma))	combination Emax (MEL-JUSO (Melanoma))	combination Emax [11]	combination Emax (LN-18 (Glioblastoma))	combination Emax [12]	combination Emax [13]	combination Emax [14]	combination Emax [15]
CC1(C)CCC(CN2CCN(c3ccc(C(=O)NS(=O)(=O)c4ccc(NCC5CCOCC5)c([N+](=O)[O-])c4)c(Oc4cnc5[nH]ccc5c4)c3)CC2)=C(c2ccc(Cl)cc2)C1 [Venetoclax] + C[C@@H](Nc1cc(F)cc(F)c1)c1cc(C(=O)N(C)C)cc2c(=O)cc(N3CCOCC3)oc12 [AZD8186] (first compound max 1 µM, 7x7, partner max 3 µM)	0.772	0.0737	0.834	0.119	0.942	0.102	0.434	0.107	0.79	0.0675	0.0406	0.108	0.0464	0.0937	0.289	0.378	0.257	0.172	0.178	0.629
CC1(C)CCC(CN2CCN(c3ccc(C(=O)NS(=O)(=O)c4ccc(NCC5CCOCC5)c([N+](=O)[O-])c4)c(Oc4cnc5[nH]ccc5c4)c3)CC2)=C(c2ccc(Cl)cc2)C1 [Venetoclax] + Cc1cc2ncnn2cc1Nc1ncc2c(n1)n(C1CCOCC1)c(=O)n2C [AZD7648] (first compound max 1 µM, 7x7, partner max 10 µM)	0.77	0.298	0.427	0.16	0.778	0.315	0.228	0.142	0.305	0.21	0.102	0.207	0.202	0.183	0.432	0.378	0.17	0.25	0.246	0.855
CC1(C)CCC(CN2CCN(c3ccc(C(=O)NS(=O)(=O)c4ccc(NCC5CCOCC5)c([N+](=O)[O-])c4)c(Oc4cnc5[nH]ccc5c4)c3)CC2)=C(c2ccc(Cl)cc2)C1 [Venetoclax] + Cn1cnc2c(F)c(Nc3ccc(Br)cc3Cl)c(C(=O)NOCCO)cc21 [Selumetinib] (first compound max 1 µM, 7x7, partner max 3 µM)	0.87	0.23	0.195	0.485	0.937	0.156	0.0815	0.0548	0.182	0.555	0.297	0.454	0.137	0.305	0.319	0.17	0.196	0.489	0.351	0.691

Source: the supplement of paper PMC11061612
